Counter-ions that a name gives are not always drawn.
Assays:
[1] = test system: U87 cells stably expressing CD4 and the chemokine receptor CCR5; assay: HIV-1 entry assay (luciferase reporter virions); assay type: cell-based; conditions: Human immunodeficiency virus 1, U87/CD4/CCR5, read-out: Viral Entry IC50
Method: Several types of assays can be used to determine the CCR5 inhibitory and antagonistic activity of the compounds of the invention. Some are, for example, the CCR5 Membrane Binding Assay, the HIV-1 Entry Assay, HIV-1 Replication Assay, the Calcium Flux Assay, the GTPγS Binding Assay (secondary membrane binding assay) and the Chemotaxis Assay. Compounds of this invention were evaluated for their ability to inhibit CCR5 receptor mediated viral entry using an HIV-1 entry assay, which is described below:
Replication defective HIV-1 reporter virions are generated by cotransfection of a plasmid encoding the NL4-3 strain of HIV-1 (which has been modified by mutation of the envelope gene and introduction of a luciferase reporter plasmid) along with a plasmid encoding one of several HIV-1 envelope genes as described by Connor et al, Virology, 206 (1995), 935-944. Following transfection of the two plasmids by calcium phosphate precipitation, the viral supernatants are harvested on day 3 and a functional viral titer determined. These stocks are then used to infect U87 cells stably expressing CD4 and the chemokine receptor CCR5 which have been preincubated with or without test compound. Infections are carried out for 2 hours at 37° C., the cells washed and media replaced with fresh media containing compound. The cells are incubated for 3 days, lysed and luciferase activity determined. […]

CCON=C(c1ccc(OC(F)(F)F)cc1)N1CCN(C2(C)CCN(C(=O)c3c(C)ncnc3C)CC2)C[C@@H]1C (as salt: HCl)
melting point: 165 to 169 °C

CCON=C(c1ccc(C(F)(F)F)cc1)N1CCN(C2(C)CCN(C(=O)c3c(C)ncnc3C)CC2)C[C@@H]1C [Ih, 1-[(4,6-dimethyl-5-pyrimidinyl)carbonyl]-4-[4-[(ethoxyimino)[4-(trifluoromethyl)phenyl]methyl]-3(s)-methyl-1-piperazinyl]-4-methylpiperidine]
IC50 [1]: 16.5 nM
